Data taken from paper PMC8482815, “Targeting Host Glycolysis as a Strategy for Antimalarial Development” (Frontiers in Cellular and Infection Microbiology, 2021).
Several values for one entry are separate records, joined by “and”; a condition that tells them apart may be missing. Equal entries are not always repeated.

Tested on: human erythrocytes
Assay: Untargeted metabolomics and 13C-glucose tracing of enolase inhibitor treated erythrocytes
Type: cell-based
Conditions: 0.5h
Protocol: Freshly collected erythrocytes were washed, resuspended to 10% hematocrit in buffer [25mM HEPES (pH 7.4), 120mM NaCl, 5.4mM KCl, 1.8mM CaCl2, and 1mM NaH2PO4], incubated for 1 hour at 37°C, then centrifuged at 2000xg for 5 minutes at 4°C, resuspended in fresh wash buffer to 30-40% hematocrit, and split into 210µL aliquots of packed erythrocytes. […] All samples were incubated at 37°C shaking at 500 RPM. Triplicate samples of supernatants and packed erythrocytes were collected at 0, 0.5, 1, and 6-hour intervals and snap-frozen in liquid N2.
RBC and media samples were extracted at 1:10 and 1:20 dilutions, respectively, in 5:3:2 MeOH : MeCN:H2O v/v/v, and supernatants analyzed on a Thermo Vanquish UHPLC coupled to a Thermo Q Exactive mass spectrometer, as extensively described ([Nemkov et al., 2015]; [Nemkov et al., 2017]). The extraction buffer was supplemented with 40uM 3-^13C lactate to allow absolute quantification of lactate isotopologues, including lactate generated via glycolysis ([1,2,3-^13C3] enriched) vs. the pentose phosphate pathway ([2,3-^13C2] enriched), as described ([Reisz et al., 2016]). Metabolite assignments, peak area integration and isotopologues distributions were determined using Maven (Princeton University) ([Nemkov et al., 2015]; [Nemkov et al., 2017]).
Data were auto-scaled and normalized to zero-hour time points. Metabolites were removed from the dataset if greater than 50% of the samples contained missing values or the relative standard deviation among replicates exceeded 25%. Additionally, data was filtered using the interquartile range to reduce near-constant values from the experiment by 5%.
A principal component analysis of preprocessed data was plotted with the 95% confidence interval minimum volume enclosing ellipsoid for each respective group (MetaboAnalyst, cluster, plotly). A two-way repeated measures analysis of variance (ANOVA) was performed with multiple comparisons corrected for using a false discovery rate p-value cutoff of 0.05. Metabolite-Pathway analysis was performed using the R package of MetaboAnalyst, as previously described ([Xia and Wishart, 2010]). Metabolite-Protein nodal analysis was performed using omicsnet.ca and as previously described ([Zhou and Xia, 2018]).

[1] = treated erythrocytes, one value per replicate sample, polarity +
[2] = treated erythrocytes, one value per replicate sample, polarity -
[3] = treated erythrocytes, replicate samples

CC(C)(C)C(=O)OCOP(=O)(OCOC(=O)C(C)(C)C)C1CCCN(O)C1=O (stereo not shown) [POMHEX]
AMP level (metabolomics signal) (replicate samples): 2.04E+06 and 4.36E+06 and 1.74E+06 | ATP level (metabolomics signal) (replicate samples): 4.24E+03 and 2.55E+03 and 4.82E+03 | Adenine level (metabolomics signal) (replicate samples): 1.54E+05 and 1.61E+05 and 1.63E+05 | Cytosine level (metabolomics signal) (replicate samples): 6.37E+05 and 5.53E+05 and 6.73E+05 | L-alanine level (metabolomics signal) (replicate samples): 1.10E+07 and 9.02E+06 and 1.16E+07 | L-arginine level (metabolomics signal) (replicate samples): 8.79E+06 and 1.37E+07 and 1.09E+07 | L-asparagine level (metabolomics signal) (replicate samples): 5.66E+06 and 6.04E+06 and 5.52E+06 | L-aspartate level (metabolomics signal) (replicate samples): 5.07E+07 and 4.67E+07 and 4.55E+07 | L-cysteine level (metabolomics signal) (replicate samples): 3.90E+05 and 9.84E+05 and 3.84E+05 | L-glutamate level (metabolomics signal) (replicate samples): 3.66E+07 and 3.55E+07 (2×) | L-glutamine level (metabolomics signal) (replicate samples): 6.00E+07 and 6.77E+07 and 7.03E+07 | L-histidine level (metabolomics signal) (replicate samples): 1.31E+06 and 1.35E+06 and 1.30E+06 | L-isoleucine level (metabolomics signal) (replicate samples): 1.70E+07 and 1.55E+07 and 1.61E+07 | L-leucine level (metabolomics signal) (replicate samples): 2.16E+08 and 2.81E+08 and 2.05E+08 | L-lysine level (metabolomics signal) (replicate samples): 2.55E+06 and 2.50E+06 and 1.99E+06 | L-methionine level (metabolomics signal) (replicate samples): 1.95E+07 and 2.57E+07 and 1.85E+07 | L-phenylalanine level (metabolomics signal) (replicate samples): 1.37E+07 and 1.80E+07 and 1.25E+07 | L-proline level (metabolomics signal) (replicate samples): 4.87E+07 and 5.22E+07 and 3.89E+07 | L-serine level (metabolomics signal) (replicate samples): 4.56E+06 and 4.84E+06 and 4.45E+06 | L-threonine level (metabolomics signal) (replicate samples): 6.27E+06 and 7.92E+06 and 7.08E+06 | L-tryptophan level (metabolomics signal) (replicate samples): 5.02E+06 and 4.78E+06 and 4.62E+06 | L-tyrosine level (metabolomics signal) (replicate samples): 2.37E+07 (2×) and 3.01E+07 | L-valine level (metabolomics signal) (replicate samples): 1.71E+08 and 1.67E+08 and 1.60E+08 | dCMP level (metabolomics signal) (replicate samples): 2.34E+04 and 2.37E+04 and 1.78E+04 | dTMP level (metabolomics signal) (replicate samples): 9.79E+05 and 1.15E+06 and 1.17E+06 | glycine level (metabolomics signal) (replicate samples): 2.21E+06 and 2.32E+06 and 2.35E+06 | N-Acyl-D-aspartate (C06380) metabolite signal [1]: 2.31E+05 and 2.56E+05 and 2.58E+05 | Poly-gamma-D-glutamate (C05723) metabolite signal [1]: 3.95E+07 and 4.61E+07 and 4.86E+07 | D-Ribitol 5-phosphate (C01068) metabolite signal [2]: 2.02E+04 and 2.67E+04 and 2.32E+04 | D-glucono-1,5-lactone (C00198) metabolite signal [2]: 5.42E+05 and 4.39E+05 and 4.31E+05 | L-Noradrenaline (C00547) metabolite signal [2]: 7.51E+04 and 1.32E+05 and 6.59E+04 | Oxalosuccinate (C05379) metabolite signal [2]: 1.39E+05 and 1.40E+05 and 1.27E+05 | Pyridoxamine (C00534) metabolite signal [2]: 3.25E+04 and 2.97E+04 and 2.95E+04 | Thioredoxin disulfide (C00343) metabolite signal [2]: 5.85E+04 and 1.53E+04 and 4.46E+04 | 1-4-beta-D-Xylan (metabolite signal) [3]: 2.40E+05 and 2.75E+05 and 1.64E+05 | 2-Hydroxyglutarate/Citramalate (C02630) metabolite signal [3]: 1.06E+05 and 6.70E+04 and 9.81E+04 | 5-6-Dihydrothymine (C00906) metabolite signal [3]: 3.14E+05 and 2.95E+05 and 2.82E+05 | 5-10-Methenyltetrahydrofolate (metabolite signal) [3]: 3.07E+05 and 3.19E+05 and 3.47E+05 | 5-Hydroxyisourate (C11821) metabolite signal [3]: 6.72E+06 and 4.60E+06 and 5.11E+06 | 5-L-Glutamyl-taurine (metabolite signal) [3]: 1.65E+05 and 1.74E+05 and 8.68E+04 | 5-Oxoproline (metabolite signal) [3]: 1.01E+06 and 8.27E+05 and 8.80E+05 | (S)(+)-Allantoin (C02350) metabolite signal [3]: 2.15E+04 and 0.00E+00 and 2.93E+04 | Allantoate (C00499) metabolite signal [3]: 2.52E+05 and 3.85E+05 and 2.39E+05 | Ascorbate (metabolite signal) [3]: 9.38E+04 and 1.10E+05 and 1.13E+05 | CMP-N-acetylneuraminate (metabolite signal) [3]: 2.14E+04 and 1.46E+04 and 2.19E+04 | Carnosine (metabolite signal) [3]: 2.66E+05 and 1.54E+05 and 2.52E+05 | Citrate (C00158) metabolite signal [3]: 4.21E+04 and 3.38E+04 and 3.43E+04 | Creatine (metabolite signal) [3]: 3.82E+08 and 3.13E+08 and 3.15E+08 | Creatinine (metabolite signal) [3]: 3.99E+06 and 3.09E+06 and 3.73E+06 | Cys-Gly (metabolite signal) [3]: 2.17E+06 and 2.13E+06 and 1.97E+06 | D-Glucosamine (metabolite signal) [3]: 2.57E+05 and 3.05E+05 and 2.16E+05 | D-Glucose (C00031) metabolite signal [3]: 6.04E+06 and 6.91E+06 and 5.92E+06 | D-Ribose (C00121) metabolite signal [3]: 1.90E+05 and 1.42E+05 and 1.71E+05 | Dehydroascorbate (metabolite signal) [3]: 1.55E+04 and 2.20E+04 and 1.72E+04 | Dihydrofolate (metabolite signal) [3]: 1.72E+06 and 1.97E+06 and 2.05E+06 | Dimethylglycine (metabolite signal) [3]: 1.06E+06 and 1.08E+06 and 9.75E+05 | Diphosphate (C00013) metabolite signal [3]: 3.53E+03 and 8.59E+03 and 2.40E+03 | Fumarate (C00122) metabolite signal [3]: 1.24E+05 and 9.52E+04 and 1.10E+05 | Glutathione (C00051) metabolite signal [3]: 1.46E+08 and 1.38E+08 and 1.22E+08 | Glutathione disulfide (metabolite signal) [3]: 2.34E+05 and 1.46E+05 and 2.55E+05 | Hypoxanthine (C00262) metabolite signal [3]: 4.07E+04 and 4.68E+04 and 4.37E+04 | IMP (C00130) metabolite signal [3]: 0.00E+00 and 1.71E+05 and 8.01E+04 | Inosine (C00294) metabolite signal [3]: 1.09E+05 and 6.95E+04 and 7.35E+04 | L-Citrulline (metabolite signal) [3]: 4.16E+06 and 4.12E+06 and 4.14E+06 | L-Homoserine (metabolite signal) [3]: 1.91E+05 and 2.39E+05 and 1.86E+05 | Lactate (C01432) metabolite signal [3]: 8.53E+06 and 7.59E+06 and 8.32E+06 | Malate (C00149) metabolite signal [3]: 2.09E+05 and 1.30E+05 and 1.62E+05 | Mannitol (C00392) metabolite signal [3]: 1.34E+05 and 1.15E+05 and 1.42E+05 | N-Acetylneuraminate (metabolite signal) [3]: 3.02E+04 and 1.89E+04 and 1.91E+04 | N-Glycoloyl-neuraminate (metabolite signal) [3]: 1.66E+05 and 1.75E+05 and 1.62E+05 | NAD+ (C00003) metabolite signal [3]: 5.24E+05 and 2.47E+05 and 4.46E+05 | Nicotinamide (C00153) metabolite signal [3]: 3.74E+07 and 4.23E+07 and 3.90E+07 | Ornithine (metabolite signal) [3]: 2.17E+06 and 2.00E+06 and 1.65E+06 | Oxaloacetate (C00036) metabolite signal [3]: 3.93E+04 and 5.60E+04 and 5.05E+04 | Phosphoserine (metabolite signal) [3]: 5.17E+04 and 3.63E+04 and 3.54E+04 | Putrescine (metabolite signal) [3]: 7.82E+04 and 7.87E+04 and 8.82E+04 | Pyridoxal (C00250) metabolite signal [3]: 7.34E+04 and 7.61E+04 and 7.64E+04 | Pyruvate (C00022) metabolite signal [3]: 5.86E+05 and 6.64E+05 and 6.39E+05 | S-Glutathionyl-L-cysteine (metabolite signal) [3]: 1.61E+05 and 1.05E+05 and 1.77E+05 | Sedoheptulose 1-phosphate (C06222) metabolite signal [3]: 1.57E+04 and 1.33E+04 and 1.23E+04 | Spermidine (metabolite signal) [3]: 1.10E+07 and 8.21E+06 and 9.51E+06 | Spermine (metabolite signal) [3]: 1.10E+07 and 9.13E+06 and 8.60E+06 | Succinate (C00042) metabolite signal [3]: 7.14E+04 and 9.44E+04 and 6.66E+04 | Thymidine (C00214) metabolite signal [3]: 1.01E+04 and 1.94E+04 and 1.37E+04 | UDP (C00015) metabolite signal [3]: 1.69E+05 and 2.66E+05 and 2.03E+05 | UDP-N-acetyl-D-glucosamine (metabolite signal) [3]: 1.85E+04 (2×) and 1.14E+04 | UDP-glucose (C00029) metabolite signal [3]: 3.86E+04 and 2.14E+04 and 2.96E+04 | Urate (C00366) metabolite signal [3]: 3.40E+04 and 3.79E+04 and 3.24E+04 | Xanthine (C00385) metabolite signal [3]: 3.40E+05 and 3.32E+05 and 3.09E+05 | alpha-D-Glucosamine 1-phosphate (metabolite signal) [3]: 2.32E+06 and 1.61E+06 and 1.74E+06 | alpha-D-Ribose 1-phosphate (C00620) metabolite signal [3]: 1.49E+05 and 1.17E+05 and 8.56E+04 | gamma-Glutamyl-gamma-aminobutyrate (metabolite signal) [3]: 9.84E+04 and 1.13E+05 and 1.05E+05 | gamma-L-Glutamyl-D-alanine (metabolite signal) [3]: 3.61E+04 and 2.95E+04 and 2.86E+04 | gamma-L-Glutamyl-L-cysteine (metabolite signal) [3]: 2.26E+04 and 4.82E+04 and 4.78E+04
